Read-outs that look alike come from different tables or passages of the source.
Key:
[1] = target: isolated recombinant JAK1 kinase domain (Homo sapiens (Human), UniProt P23458); assay: JAK1 enzyme assay (Caliper LabChip, Ki); assay type: biochemical
Protocol: (§1) JAK Enzyme Assays were carried out as follows:
(§2) The activity of the isolated recombinant JAK1 and JAK2 kinase domain was measured by monitoring phosphorylation of a peptide derived from JAK3 (Val-Ala-Leu-Val-Asp-Gly-Tyr-Phe-Arg-Leu-Thr-Thr, fluorescently labeled on the N-terminus with 5-carboxyfluorescein) using the Caliper LabChip® technology (Caliper Life Sciences, Hopkinton, Mass.). […] Reactions were incubated at 22° C. in 384-well polypropylene microtiter plates for 30 minutes and then stopped by addition of 25 μL of an EDTA containing solution (100 mM HEPES buffer (pH 7.2), 0.015% Brij-35, 150 mM EDTA), resulting in a final EDTA concentration of 50 mM. After termination of the kinase reaction, the proportion of phosphorylated product was determined as a fraction of total peptide substrate using the Caliper LabChip® 3000 according to the manufacturer's specifications. Ki values were then determined using the Morrison tight binding model (Morrison, J. F., Biochim. Biophys. Acta. 185:269-296 (1969); William, J. W. and Morrison, J. F., Meth. Enzymol., 63:437-467 (1979)) modified for ATP-competitive inhibition [Ki=Ki,app/(1+[ATP]/Km,app)].

[2] = target: isolated recombinant JAK2 kinase domain (Homo sapiens (Human), UniProt O60674); assay: JAK2 enzyme assay (Caliper LabChip, Ki); assay type: biochemical
Sequence of isolated recombinant JAK2 kinase domain (O60674 849-1124): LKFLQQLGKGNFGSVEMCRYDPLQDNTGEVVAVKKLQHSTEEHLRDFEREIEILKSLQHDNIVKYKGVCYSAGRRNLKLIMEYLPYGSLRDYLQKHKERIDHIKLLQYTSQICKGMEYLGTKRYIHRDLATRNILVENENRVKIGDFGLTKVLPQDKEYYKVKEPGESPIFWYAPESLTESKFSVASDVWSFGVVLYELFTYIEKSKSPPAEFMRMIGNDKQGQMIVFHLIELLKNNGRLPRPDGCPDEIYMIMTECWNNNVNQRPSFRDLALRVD
Protocol: as §1
as §2, with “([…]” for “(Val-Ala-Leu-Val-Asp-Gly-Tyr-Phe-Arg-Leu-Thr-Thr,”, “specifications.” for “specifications. Ki values were then determined using the Morrison tight binding model (Morrison, J. F., Biochim. Biophys. Acta. 185:269-296 (1969); William, J. W. and Morrison, J. F., Meth. Enzymol., 63:437-467 (1979)) modified for ATP-competitive inhibition [Ki=Ki,app/(1+[ATP]/Km,app)].”

[3] = test system: JAK1-dependent STAT6 phosphorylation downstream of IL-13 stimulation in BEAS-2B human bronchial epithelial cells; assay: JAK1 pathway assay in BEAS-2B cells (IL-13-pSTAT6, MSD); assay type: cell-based; details: Homo sapiens, BEAS-2B, BEAS-2B cells, IL-13 stimulation; read-out: IL-13 p-STAT6 BEAS-2B IC50
Protocol: JAK1 Pathway Assay in Cell Lines was carried out as follows:
Inhibitor potency (EC50) was determined in cell-based assays designed to measure JAK1 dependent STAT phosphorylation.
In one assay approach, TF-1 human erythroleukemia cells obtained from the American Type Culture Collection (ATCC; Manassas, Va.) were used to measure JAK1-dependent STAT6 phosphorylation downstream of IL-13 stimulation. Prior to use in the assays, TF-1 cells were starved of GM-CSF overnight in OptiMEM medium (Life Technologies, Grand Island, N.Y.) supplemented with 0.5% charcoal/dextran stripped fetal bovine serum (FBS), 0.1 mM non-essential amino acids (NEAA), and 1 mM sodium pyruvate. The assays were run in 384-well plates in serum-free OptiMEM medium using 300,000 cells per well. In a second assay approach, BEAS-2B human bronchial epithelial cells obtained from ATCC were plated at 100,000 cells per well of a 96-well plate one day prior to the experiment. The BEAS-2B assay was run in complete growth medium (bronchial epithelial basal medium plus bulletkit; Lonza; Basel, Switzerland).
Test compounds were serially diluted 1:2 in DMSO and then diluted 1:50 in medium just before use. Diluted compounds were added to the cells, for a final DMSO concentration of 0.2%, and incubated for 30 min (for the TF-1 assay) or 1 hr (for the BEAS-2B assay) at 37° C. Then, cells were stimulated with human recombinant cytokine at their respective EC90 concentrations, as previously determined for each individual lot. Cells were stimulated with IL-13 (R&D Systems, Minneapolis, Minn.) for 15 min at 37° C. The TF-1 cell reactions were stopped by the direct addition of 10× lysis buffer (Cell Signaling Technologies, Danvers, Mass.), whereas the BEAS-2B cell incubations were halted by the removal of medium and addition of 1× lysis buffer. The resultant samples were frozen in the plates at −80° C. Compound mediated inhibition of STATE phosphorylation was measured in the cell lysates using MesoScale Discovery (MSD) technology (Gaithersburg, Md.).

Sequence of isolated recombinant JAK1 kinase domain (P23458 875-1153): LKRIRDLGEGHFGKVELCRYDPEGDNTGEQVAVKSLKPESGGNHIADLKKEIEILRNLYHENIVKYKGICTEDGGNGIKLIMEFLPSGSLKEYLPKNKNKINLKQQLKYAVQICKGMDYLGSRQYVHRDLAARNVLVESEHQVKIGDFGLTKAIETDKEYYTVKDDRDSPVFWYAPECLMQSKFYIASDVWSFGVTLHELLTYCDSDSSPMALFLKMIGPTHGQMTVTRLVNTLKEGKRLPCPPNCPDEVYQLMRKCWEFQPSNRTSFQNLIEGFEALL

| Structure (SMILES) | Ki [1] [nM] | Ki [2] [nM] | IC50 [3] [nM] | Ki ([1]; read-out: JAK1 Ki) [nM] |
| --- | --- | --- | --- | --- |
| N#CC[C@]1(n2cc(C(N)=O)c(NC(=O)C3CC3)n2)CC[C@@H](NCC(F)(F)F)CC1 (single isomer, unassigned) [Example 1] | > 562 | 252 | > 1000 |  |
| N#CC[C@]1(n2cc(C(N)=O)c(NC(=O)C3CC3)n2)CC[C@H](NCC(F)(F)F)CC1 (single isomer, unassigned) [Example 2] | 1.2 | 6.1 | 373 |  |
| N#CC[C@]1(n2cc(C(N)=O)c(NC(=O)C3CC3)n2)CC[C@H](N2CC(C(F)(F)F)C2)CC1 (single isomer, unassigned) [Example 8] |  | 11 | 194 | 1.7 |
| CCOC1(C(F)(F)F)CN([C@H]2CC[C@@](CC#N)(n3cc(C(N)=O)c(NC(=O)C4CC4)n3)CC2)C1 (single isomer, unassigned) [Example 9] |  | 24.3 | 436 | 2.2 |
| CCOC1(C(F)(F)F)CN([C@H]2CC[C@](CC#N)(n3cc(C(N)=O)c(NC(=O)C4CC4)n3)CC2)C1 (single isomer, unassigned) [Example 10] |  | > 319 | > 1000 | > 562 |
| N#CC[C@]1(n2cc(C(N)=O)c(NC(=O)C3CC3)n2)CCN(Cc2ccc(-c3ccccc3)cc2)C[C@@H]1F (single isomer, unassigned) [Example 12] |  | 6.8 | 103 | 1.3 |
| N#CC[C@@]1(n2cc(C(N)=O)c(NC(=O)C3CC3)n2)CCN(Cc2ccc(-c3ccccc3)cc2)C[C@@H]1F (single isomer, unassigned) [Example 13] |  | 2.2 | 37 | 0.6 |
| N#CC[C@]1(n2cc(C(N)=O)c(NC(=O)C3CC3)n2)CCN(Cc2ccc(-c3ccccc3)cc2)C[C@H]1F (single isomer, unassigned) [Example 14] |  | 0.4 | 16 | 0.2 |
| N#CC[C@@]1(n2cc(C(N)=O)c(NC(=O)C3CC3)n2)CCN(Cc2ccc(-c3ccccc3)cc2)C[C@H]1F (single isomer, unassigned) [Example 15] |  | 30.7 | 282 | 4.2 |
| N#CCC1(n2cc(C(N)=O)c(NC(=O)C3CC3)n2)CCN(Cc2ccc(-c3cccc(C(F)(F)F)c3)cc2)CC1 [Example 150, 1-[4-(cyanomethyl)-1-[[4-[3-(trifluoromethyl)phenyl]phenyl]methyl]-4-piperidyl]-3-(cyclopropanecarbonylamino) pyrazole-4-carboxamide] |  | 208 |  | 15.9 |
| N#CCC1(n2cc(C(N)=O)c(NC(=O)C3CC3)n2)CCN(Cc2ccc(-c3cccnc3)cc2)CC1 [Example 158] |  | 39.4 |  | 8 |
| N#CCC1(n2cc(C(N)=O)c(NC(=O)C3CC3)n2)CCN(Cc2ccc(-c3ccncc3)cc2)CC1 [Example 159, 1-[4-(cyanomethyl)-1-[[4-(4-pyridyl)phenyl]methyl]-4-piperidyl]-3-(cyclopropanecarbonylamino) pyrazole-4-carboxamide] |  | 101 |  | 19 |
| N#CC[C@]1(n2cc(C(N)=O)c(NC(=O)C3CC3)n2)CCN(Cc2ccccc2)C[C@H]1F [Example 165] |  | 211 |  | 27.1 |
| N#CCC1(n2cc(C(N)=O)c(NC(=O)C3CC3)n2)CCN(C(=O)C2CC(F)(F)C2)CC1 [Example 168, 1-[4-(cyanomethyl)-1-(3,3-difluorocyclobutanecarbonyl)-4-piperidyl]-3-(cyclopropanecarbonylamino) pyrazole-4-carboxamide] |  | 93.3 |  | 7.5 |
| N#CCC1(n2cc(C(N)=O)c(NC(=O)C3CC3)n2)CCN(C(=O)CC(F)(F)F)CC1 [Example 170, 1-[4-(cyanomethyl)-1-(3,3,3-trifluoropropanoyl)-4-piperidyl]-3-(cyclopropanecarbonylamino) pyrazole-4-carboxamide] |  | 70.9 |  | 6.7 |
| CC(F)(F)C(=O)N1CCC(CC#N)(n2cc(C(N)=O)c(NC(=O)C3CC3)n2)CC1 [Example 171, 1-[4-(cyanomethyl)-1-(2,2-difluoropropanoyl)-4-piperidyl]-3-(cyclopropanecarbonylamino) pyrazole-4-carboxamide] |  | 30.3 |  | 6.6 |
| N#CC[C@]1(n2cc(C(N)=O)c(NC(=O)C3CC3)n2)CC[C@H](NC2CC(F)(F)C2)CC1 [Example 172, 1-[1-(cyanomethyl)-4-[(3,3-difluorocyclobutyl)amino]cyclohexyl]-3-(cyclopropanecarbonylamino) pyrazole-4-carboxamide] | > 562 | > 319 |  |  |
| N#CC[C@]1(n2cc(C(N)=O)c(NC(=O)C3CC3)n2)CC[C@@H](NC2CC(F)(F)C2)CC1 [Example 173, 1-[1-(cyanomethyl)-4-[(3,3-difluorocyclobutyl)amino]cyclohexyl]-3-(cyclopropanecarbonylamino) pyrazole-4-carboxamide] | 8.7 | 71.3 |  |  |
| N#CC[C@]1(n2cc(C(N)=O)c(NC(=O)C3CC3)n2)CC[C@H](NC2CCC(F)(F)CC2)CC1 [Example 174, 1-[1-(cyanomethyl)-4-[(4,4-difluorocyclohexyl)amino]cyclohexyl]-3-(cyclopropanecarbonylamino) pyrazole-4-carboxamide] | > 562 | > 319 |  |  |
| N#CC[C@]1(n2cc(C(N)=O)c(NC(=O)C3CC3)n2)CC[C@@H](NC2CCC(F)(F)CC2)CC1 [Example 175, 1-[1-(cyanomethyl)-4-[(4,4-difluorocyclohexyl)amino]cyclohexyl]-3-(cyclopropanecarbonylamino) pyrazole-4-carboxamide] | 14.1 | 321 |  |  |
| N#CC[C@]1(n2cc(C(N)=O)c(NC(=O)C3CC3)n2)CC[C@H](N2CC(F)(F)C2)CC1 [Example 179, 1-[1-(cyanomethyl)-4-(3,3-difluoroazetidin-1-yl)cyclohexyl]-3-(cyclopropanecarbonylamino) pyrazole-4-carboxamide] | > 562 | > 319 |  |  |
| N#CC[C@]1(n2cc(C(N)=O)c(NC(=O)C3CC3)n2)CC[C@H](N2CC(F)C2)CC1 [Example 181, 1-[1-(cyanomethyl)-4-(3-fluoroazetidin-1-yl)cyclohexyl]-3-(cyclopropanecarbonylamino) pyrazole-4-carboxamide] | > 562 | > 319 |  |  |
| N#CCC1(n2cc(C(N)=O)c(NC(=O)C3CC3)n2)CCN(CCc2ccccc2)CC1 [Example 183, 1-[4-(cyanomethyl)-1-(2-phenylethyl)-4-piperidyl]-3-(cyclopropanecarbonylamino) pyrazole-4-carboxamide] |  | > 319 |  | 88.3 |
| N#CCC1(n2cc(C(N)=O)c(NC(=O)C3CC3)n2)CCN(Cc2ccc(-c3ccccn3)cc2)CC1 [Example 185, 1-[4-(cyanomethyl)-1-[[4-(2-pyridyl)phenyl]methyl]-4-piperidyl]-3-(cyclopropanecarbonylamino) pyrazole-4-carboxamide] |  |  | 209 | 2.3 |

— patent US11731943B2, “Therapeutic compounds, compositions and methods of use thereof” (priority 2016, dated 2023)
